Test results published in patent US6472390B1, “Use of therapeutic dosages for nitric oxide donors which do not significantly lower blood pressure or pulmonary artery pressure” (Duke University, priority 2001, dated 2002).

Assays:
[1] = regardless of dosage; cited from earlier work
[2] = system: patient with congestive heart failure, hypotension and angina; assay: patient with congestive heart failure, hypotension and angina, intraarterial infusion (Example XIX); assay type: in vivo, human; settings: 200 nmol/kg via the brachial artery over 3 minutes
Experimental: A person with congestive heart failure develops hypotension and angina. S-nitrosoglutathione (200 nmol/kg) is infused via the brachial artery over 3 minutes. The angina resolves. The systolic blood pressure rises from 85 mm Hg to 100 mm Hg.

[3] = system: patient with severe three vessel disease; assay: patient with severe three vessel coronary disease (Example XVII); assay type: in vivo, human; settings: oral, titrated so that resting systolic blood pressure does not change; three years
Description: They do well with no symptoms of coronary disease over the following three years.

mouse aorta rings = assay: vascular ring bioassay on mouse aorta rings (Example I)
Description: The assay involves a chamber of solution into which mouse aorta ring attached to a force transducer is placed where the solution is bubbled with 21% O2/5% CO2/balance N2. The force transducer moves a pen in response to contraction and relaxation effects to give a tracing of forces (tension) in the Y-direction versus time in the X-direction on a chart. Various agents as described later are applied to the aorta rings to give to give contraction and relaxation effects. Tracings of force (tension) in the Y-direction versus time in the X-direction are obtained with upward direction indicating contraction and downward direction indicating relaxation. […] On FIG. 1, “E” means application of phenylephrine, a constricting agent, and the concentrations thereof at particular times are denoted; “ACh” means application of acetyIcholine (which causes a relaxation effect in response to endogenous nitric oxide) and the concentration thereof at particular times are denoted; and “GSNO” means application of S-nitrosoglutathione, an NO donor, and the concentrations thereof at particular times are denoted. […] As further shown in FIG. 1, flushing is then carried out three times then and one more time; the flushing is carried out (with Krebs-Henseleit solution described hereinafter in Example III) and removes the acetylcholine. As further shown in FIG. 1, phenylephrine is then applied starting at a concentration of 10^−7 molar increasing to a concentration of 10^−5.5 molar. […] As further shown in FIG. 1, flushing is then carried out three times (with Krebs-Henseleit solution); and then one more time with the same flushing agent; this flushing removes the S-nitrosoglutathione.

platelets = settings: doses that do not acutely drop blood pressure; cited from earlier work
[4] = system: patient with recurrent episodes of acute vasospastic angina; assay: patient with acute vasospastic angina (Example VII); assay type: in vivo, human
Experimental: A person who complains of recurrent episodes of acute vasospastic angina is treated with S-nitrosoglutathione (GSNO) at 1-1,000 μg orally 4×/day. Blood pressure is unchanged and acute symptoms resolve. In addition, the frequency of vasospastic chest pain decreases over the following three weeks.

[5] = system: isolated buffer-perfused lungs (IPL) of rabbits; assay: isolated buffer-perfused rabbit lung, pulmonary artery pressure (Example III); settings: for change in mean pulmonary artery pressure (Ppa) on injection of NO donor: GSNO 50 μM or SIN1 100 μM injected into the recirculating system; for constriction (change in Ppa) by serotonin: serotonin 1 micromolar sixty minutes after GSNO 50 μM or SIN1 100 μM
[6] = system: patient with claudication and a leg ulcer; assay: patient with claudication and leg ulcer (Example XV); assay type: in vivo, human
Experimental: A person with risk factors of hypertension, diabetes, and hypercholestolemia and a strong family history of atherosclerosis presents with claudication and a leg ulcer. They are begun on an infusion of (SIN-1) 0.3 μm/kg per hour for a total of 1 mg with no change in blood pressure. Symptoms of rest pain resolve. They are then begun on oral S-nitrosoglutathione 1-10 μg 3×/day with improvement of duration of exercise and no recurrence of rest pain.

[7] = system: patient with primary pulmonary hypertension class II; assay: patient with primary pulmonary hypertension (Example VIII); assay type: in vivo, human
Experimental: […] They are given 10 mM GSNO in 1 cc saline nebulized 3×/day. Symptoms of shortness of breath resolve but pulmonary artery pressure and systemic pressure are unchanged with acute administration. After four months of therapy, pulmonary artery pressure has dropped by 5 mm of mercury and the patient's symptoms have improved. The patient is subsequently given oral GSNO at 10 μg TID and doses are empirically changed to prevent any significant change in blood pressure.

[8] = system: patient with a transient ischemic attack; assay: patient with transient ischemic attack (Example XIII); assay type: in vivo, human
Experimental: A person presents with a transient ischemic attack evidenced by confusion and headache. Carotid dopplers show 98% new occlusion of the right carotid artery. Systolic blood pressure is 180 mm of mercury. They are given an infusion intravenously of S-nitrosocysteinyl glycine 10 μg with resolution of the headache. The systemic blood pressure remains 175 mm of mercury. Symptoms of headache and confusion resolve. The patient is then maintained on oral S-nitrosoglutathione 1-10 μg 3×/day with no recurrence of transient ischemic symptoms.

[9] = system: artery rings from New Zealand white rabbits; assay: vascular ring bioassay on rabbit artery rings (Example II); settings: NO donor 1 μM
Experimental: A vascular ring bioassay was carried out as follows: Artery rings (3 mm) were harvested from New Zealand white rabbits and mounted in 25 ml tissue baths filled with Krebs-Henseleit buffer and bubbled with 21% O2/5% CO2/balance N2. Isometric tension was measured. All rings in the study were suspended with similar baseline levels of tension (˜2 g). Tissue baths were thoroughly rinsed with fresh buffer between interventions. Three runs were carried out. In one run denoted the control, no additive was added. […] In a third run, SIN1 was added to provide a concentration of 1 μM. […] After flushing with solution as described in Example I, phenylephrine was then added in each case to provide a concentration of 1 to 10 μM. The results are shown in FIG. 2 where percent increase in tone is indicated on the Y-axis and additive or absence thereof (control) is indicated on the X-axis.

[10] = system: patient with poorly controlled asthma; assay: patient with poorly controlled asthma (Example IX); assay type: in vivo, human
Description: A person with poorly controlled asthma presents with an exacerbation. […] The frequency of asthma exacerbations decline.

[11] = system: patient with uncontrolled hypertension; assay: patient with uncontrolled hypertension (Example XVI); assay type: in vivo, human; settings: for exacerbation on maintenance: maintained on GSNO together with ethyl nitrite; for blood pressure (acute): oral GSNO 1 to 10 micrograms QID together with ethyl nitrite 0.025% (1 cc) 3×/day; for blood pressure (acute) / blood pressure: baseline 200/110; for blood pressure: over the following two weeks, GSNO together with ethyl nitrite
Description: A person with uncontrolled hypertension of 200/90 mm of mercury on a complex medical regimen including angiotension converting enzyme inhibitor, an alpha blocker, and beta blocker has a blood pressure of 200/110. They are begun on oral GSNO at 1 to 10 micrograms QID and ethyl nitrite 0.025% (1 cc) 3×/day. […] However, over the following two weeks the blood pressure falls to 170/100 consistent with better management of their disease.

[12] = system: patient receiving erythropoietin who develops chest pain; assay: patient on erythropoietin with chest pain, thiol (Example XXI); assay type: in vivo, human
Description: A person receiving erythropoietin to raise red blood count depleted by renal failure, develops chest pain (caused by increased concentration of red blood cells).

[13] = system: patient receiving erythropoietin who develops chest pain; assay: patient on erythropoietin with chest pain, NO donor infusion (Example XX); assay type: in vivo, human; settings: infusion 1-10 nmolkg/min
Description: A person receiving erythropoietin to raise red blood count depleted because of treatment for cancer or renal failure, develops chest pain (caused by increased concentration of red blood cells).

dogs = assay: systemic infusion of NO donor into dogs, systemic blood pressure (Example VI); assay type: in vivo, dog; settings: without and with ischemia, S-nitrosocysteine 3 nmol/kg or S-nitrosoalbumin 10 nmol/kg infused systemically
Description: In another case, S-nitrosocysteine (3 nmol/kg) or S-nitrosoalbumin (10 nmol/kg) is infused systemically into dogs. […] The response to S-nitrosoalbimim infusion is no different. The infusions of NO donors result in reaction with membrane receptors in red blood cells.

[14] = system: patient with symptoms of depression; assay: patient with depression (Example XIV); assay type: in vivo, human
Experimental: A person presents with symptoms of depression. They are begun on oral molsidomine (SIN-1) 10 μg per kg dose-adjusted so that blood pressure is unchanged. Over the following three weeks the symptoms of depression resolve and the patient is maintained on this dose with no recurrence.

[15] = system: patient with recurrent rectal spasm; assay: patient with recurrent rectal spasm (Example X); assay type: in vivo, human
Description: A person with recurrent rectal spasm is given oral ethyl nitrite 0.125% in ethanol (1 cc) 3×/day. […] They then continued on this therapy with a decrease in incidence of rectal pain.

[16] = system: patient with esophageal spasm; assay: patient with esophageal spasm (Example XI); assay type: in vivo, human
Description: A alcoholic with esophageal spasm is given 2 cc of 0.125% ethyl nitrite in ethanol 3×/day.

[17] = system: infant with pyloric stenosis; assay: infant with pyloric stenosis (Example XII); assay type: in vivo, human; settings: 2 cc of 0.125% in ethanol 3×/day
Description: An infant with pyloric stenosis is given 2 cc of 0.125% ethyl nitrite in ethanol 3×/day.
Symptoms of intestinal pain resolve.

[18] = system: patient with anxiety and stress; assay: patient with anxiety and stress (Example XVIII); assay type: in vivo, human; settings: ½ to 1 inch patch 3×/day titrated to avoid change in blood pressure or headache
rats = assay: infusion into rats, mean arterial blood pressure and heart rate (Example IV); assay type: in vivo, rat
Experimental: Rats (n=4) were infused via femoral vein with 200 nmol/kg of S-nitrosothiol (S-nitrosohemoglobin). Mean arterial blood pressure (MAP) and heart rate (HR) were measured.
In another case, rats (n=4) were infused via femoral artery with 200 nmol/kg of S-nitrosothiol (S-nitrosohemoglobin). Mean arterial blood pressure (MAP) and heart rate (HR) were measured.

[19] = infusion 0.3 μm/kg per hour for a total of 1 mg
[20] = oral 0.125% in ethanol (1 cc) 3×/day
[21] = 200 nmol/kg via femoral artery, rats
[22] = 200 nmol/kg via femoral vein, rats

O=C(Oc1cccc(CO[N+](=O)[O-])c1)c1ccccc1O [B-NOD, 2-hydroxybenzoic acid 3-nitrooxymethylphenyl ester]
acute lowering of mean arterial blood pressure [1]: ≤ 10%

N[C@@H](CCC(=O)N[C@@H](CSN=O)C(=O)NCC(=O)O)C(=O)O [GSNO, S-nitrosoglutathione]
angina [2]: resolves | systolic blood pressure after infusion ([2]; rises from 85 mm Hg): 100 mm Hg | symptoms of coronary disease [3]: no symptoms | effect on tension of phenylephrine-contracted ring (mouse aorta rings; S-nitrosoglutathione 1 nanomolar increasing to 10 micromolar): relaxing (contraction-attenuating) effect | contracting response to phenylephrine after pretreatment and flushing (mouse aorta rings; phenylephrine 10^-7 to 10^-5 molar after S-nitrosoglutathione removed by flushing): does not cause a contracting response | thromboembolic events (platelets): inhibit other thromboembolic events | acute symptoms of vasospastic angina ([4]; 1-1,000 μg orally 4×/day): resolve | blood pressure ([4]; 1-1,000 μg orally 4×/day): unchanged | frequency of vasospastic chest pain ([4]; over the following three weeks): decreases | change in mean pulmonary artery pressure (Ppa) on injection of NO donor [5]: did not cause change in Ppa | constriction (change in Ppa) by serotonin [5]: prevented constriction | duration of exercise ([6]; oral 1-10 μg 3×/day): improvement | recurrence of rest pain ([6]; oral 1-10 μg 3×/day): no recurrence | symptoms of shortness of breath ([7]; 10 mM in 1 cc saline nebulized 3×/day): resolve | pulmonary artery pressure and systemic pressure ([7]; acute administration, 10 mM in 1 cc saline nebulized): unchanged | drop of pulmonary artery pressure ([7]; after four months of therapy): 5 mm of mercury | patient's symptoms ([7]; after four months of therapy): improved | recurrence of transient ischemic symptoms ([8]; oral 1-10 μg 3×/day maintenance): no recurrence | effect on resting tone (relaxing effect) [9]: no effect on resting tone | frequency of asthma exacerbations ([10]; oral 10 μg Q 6 hours, continued): decline | exacerbation on maintenance [11]: no further exacerbation | blood pressure (acute) [11]: does not change | blood pressure [11]: 170/100

CC(=O)N[C@@H](CS)C(=O)O [N-acetylcysteine]
frequency of angina ([12]; 600 ng, PO, TID): decreases | blood pressure ([12]; 600 ng, PO, TID, over three weeks): drops | blood pressure ([12]; infusion 50 ng/kg): without a change | chest pain ([12]; infusion 50 ng/kg): alleviating their chest pain

CCOC(=O)[C@@H](N)CSN=O [S-nitrosocysteine ethyl ester]
blood pressure [13]: without a change | chest pain [13]: alleviating chest pain | airway tone ([10]; inhaled 1-1,000 μg nebulized in 10 cc): does not significantly improve | acute episode of asthma ([10]; over the following three days): brought under control

N[C@@H](CSN=O)C(=O)O [S-nitrosocysteine]
systemic blood pressure (dogs): no effect

N[C@@H](CSN=O)C(=O)NCC(=O)O [S-nitrosocysteinyl glycine]
systemic blood pressure ([8]; after intravenous infusion 10 μg, systolic 180 mm of mercury before): 175 mm of mercury | symptoms of headache and confusion ([8]; intravenous infusion 10 μg): resolve

CCOC(=O)[N-]c1cn(N2CCOCC2)n[o+]1 [SIN1, molsidomine]
recurrence of depression ([14]; maintained on this dose): no recurrence | symptoms of depression ([14]; oral 10 μg per kg dose-adjusted so that blood pressure is unchanged, over three weeks): resolve | change in mean pulmonary artery pressure (Ppa) on injection of NO donor [5]: did not cause change in Ppa | constriction (change in Ppa) by serotonin [5]: prevented constriction | blood pressure [6, 19]: no change | symptoms of rest pain [6, 19]: resolve | effect on resting tone (relaxing effect) [9]: did not cause a relaxing effect

CCON=O [ethyl nitrite]
incidence of rectal pain ([15]; continued therapy): decrease | blood pressure [15, 20]: does not change | symptoms of rectal pain [15, 20]: resolve | symptoms of esophageal pain ([16]; 2 cc of 0.125% in ethanol 3×/day): resolve | recurrence of symptoms ([16]; same maintenance dose): do not recur | exacerbation on maintenance [11]: no further exacerbation | blood pressure (acute) [11]: does not change | blood pressure [11]: 170/100 | symptoms of intestinal pain [17]: resolve

O=[N+]([O-])OCC(CO[N+](=O)[O-])O[N+](=O)[O-] [nitroglycerin]
symptoms of anxiety and stress [18]: alleviated in 4 days

CNC[C@H](O)c1cccc(O)c1 [phenylephrine]
effect on tension of ring (mouse aorta rings; phenylephrine 10^-8 molar increasing to 10^-5.5 molar): contracting effect

S-nitrosohemoglobin
heart rate (rats; [21]): increased | mean arterial blood pressure (rats; [21]): increased | heart rate (rats; [22]): no effect | resting blood pressure (MAP) (rats; [22]): no effect | blood pressure (rats; higher doses of S-nitrosothiol): fall
